pIC50: −log10 of the molar value.
How the values were obtained:
Assay type in all cases: cell-based
[1] = biological target: Gastrin-releasing peptide receptor (Homo sapiens, UniProt P30550); assay: Displacement of [125I]-Tyr4-BBN from human GRPR overexpressed in human T47D cells
[2] = biological target: T1, Neuropeptide Y receptor type 1 (Homo sapiens, UniProt P25929); assay: Displacement of [125I]-NPY from Y1 receptor in human MCF7 cells in presence of 1 uM BBN
T1 sequence (P25929 whole entry): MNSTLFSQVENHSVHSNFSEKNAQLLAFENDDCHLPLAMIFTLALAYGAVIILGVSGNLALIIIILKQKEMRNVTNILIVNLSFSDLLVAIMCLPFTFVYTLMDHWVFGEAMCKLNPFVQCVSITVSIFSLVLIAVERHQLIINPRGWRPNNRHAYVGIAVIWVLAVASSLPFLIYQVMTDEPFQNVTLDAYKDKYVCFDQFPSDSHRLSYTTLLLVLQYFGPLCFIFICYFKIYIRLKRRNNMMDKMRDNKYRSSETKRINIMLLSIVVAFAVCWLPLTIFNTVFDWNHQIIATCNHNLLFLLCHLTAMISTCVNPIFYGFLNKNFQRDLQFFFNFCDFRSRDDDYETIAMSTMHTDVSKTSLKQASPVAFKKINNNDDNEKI

[3] = biological target: T1, Neuropeptide Y receptor type 1; assay: Binding affinity to Y1 receptor in human SK-N-MC cells

Sequence of Gastrin-releasing peptide receptor (P30550 whole entry): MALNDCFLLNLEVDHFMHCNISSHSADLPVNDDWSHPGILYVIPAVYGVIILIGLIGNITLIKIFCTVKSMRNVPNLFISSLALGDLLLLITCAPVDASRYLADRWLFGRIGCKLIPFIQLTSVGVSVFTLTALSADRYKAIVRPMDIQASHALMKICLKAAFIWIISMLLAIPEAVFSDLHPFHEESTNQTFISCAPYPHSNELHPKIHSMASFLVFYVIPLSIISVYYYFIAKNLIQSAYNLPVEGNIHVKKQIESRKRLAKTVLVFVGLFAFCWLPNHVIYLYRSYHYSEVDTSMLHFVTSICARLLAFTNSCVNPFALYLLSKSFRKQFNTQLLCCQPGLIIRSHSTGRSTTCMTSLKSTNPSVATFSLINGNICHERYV

`CC[C@H](C)[C@H](N)C(=O)N[C@@H](CC(N)=O)C(=O)N1CCC[C@H]1C(=O)N[C@@H](CCCCNC(=O)COCCOCCNC(=O)[C@H](CCCCNC(=O)COCC(=O)NCCOCCOCC(=O)NCC(=O)Nc1ccc(C(=O)N[C@@H](CCC(N)=O)C(=O)N[C@@H](Cc2c[nH]c3ccccc23)C(=O)N[C@@H](C)C(=O)N[C@H](C(=O)NCC(=O)N[C@@H](Cc2cnc[nH]2)C(=O)N[C@@H](CC(C)C)C(=O)N[C@@H](CCSC)C(N)=O)C(C)C)cc1)NC(=O)CN1CCN(CC(=O)O)CCN(CC(=O)O)CCN(CC(=O)O)CC1)C(=O)N[C@@H](Cc1ccc(O)cc1)C(=O)N[C@@H](CCCN=C(N)N)C(=O)N[C@@H](CC(C)C)C(=O)N[C@@H](CCCN=C(N)N)C(=O)N[C@@H](Cc1ccc(O)cc1)C(N)=O` gave a pIC50 [1] of 7.74, a pIC50 [2] of 7.10 and a pIC50 [3] of 7.13.

— ChEMBL document CHEMBL2311470, “Heterobivalent dual-target probe for targeting GRP and Y1 receptors on tumor cells” (Bioorg Med Chem Lett, 2013)
